Laboratory results reported in patent US20250375526A1, “IRAK DEGRADERS AND USES THEREOF” (Kymera Therapeutics, Inc., priority 2020, published 2025).

Molecular target: T1, IRAK4 (Homo sapiens, UniProt Q9NWZ3)
T1 construct: endogenous in cells; host or cells: OCI-Ly10
T1 sequence (Q9NWZ3 1-460): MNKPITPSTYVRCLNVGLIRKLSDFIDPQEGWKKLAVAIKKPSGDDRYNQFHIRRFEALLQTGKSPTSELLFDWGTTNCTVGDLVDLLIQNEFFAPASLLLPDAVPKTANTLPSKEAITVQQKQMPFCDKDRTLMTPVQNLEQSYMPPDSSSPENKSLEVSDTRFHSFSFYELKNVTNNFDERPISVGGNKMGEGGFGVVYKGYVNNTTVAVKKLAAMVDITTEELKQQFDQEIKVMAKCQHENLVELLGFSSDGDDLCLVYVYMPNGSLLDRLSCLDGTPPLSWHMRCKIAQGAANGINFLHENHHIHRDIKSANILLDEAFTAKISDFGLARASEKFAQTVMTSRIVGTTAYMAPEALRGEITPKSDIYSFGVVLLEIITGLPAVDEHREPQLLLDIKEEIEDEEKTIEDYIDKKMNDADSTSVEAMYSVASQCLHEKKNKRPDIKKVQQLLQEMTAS
Assay: OCI-LY10 IRAK MSD assay DC50 (IRAK4 degradation)
Type: cell-based
Conditions: OCI-Ly10 cells, incubated for 4 hr, concentration of compound required to degrade 50% of protein
Procedure: A MSD assay is run to determine the concentration of compound required to degrade 50% of protein (DC50).
• Compounds were reconstituted to 10 mM in stock solutions. The stock solutions were diluted to 5 mM and 45 μL of each dilution was transferred to a 384 pp-plate. A 3 fold, 8-point serial dilution was performed by transferring 15 μL of compound into 30 μL DMSO using Janus. • 20 nL of each compound were added into each well of a 96-well plate (Corning3799). • OCI-Ly10 cells were seeded into the 96-well plate at 3.0*10e^5 cells/100 μL/well. • The cell plate was shaken at 720 rpm for 5 min and incubated for 4 hr. • 100 μL of cells were transferred into the 96-PCR plate and spun down at high speed for 5 mins. • The supernatant was discarded and 100 μL of RIPA lysis buffer with proteinase inhibitors was added per well. The plate was then sealed and shaken at 600 rpm and 4° C. for about 20 min. • The plate was then spun down at high speed (about 3200 g) for 30 min and then frozen in a −80° C. fridge. • A bare MSD plate (L15XA-3) was coated with 2 μg/mL of capture antibody (mouse Anti-IRAK4 antibody [2H9], ab119942) in PBS to 40 μL/well and incubated overnight at 4° C.
• The MSD coated plate was washed 3× (150 μL/well) with 1×TBST (CST #9997S). • The MSD plate was then blocked with 150 μL of blocking buffer [3% Blocker A (MSD, R93BA-4) in TBST]/well and shaken for 1 hr at RT and 600 rpm. • The MSD plate was washed 3× (150 μL/well) with 1×TBST. The sample RIPA lysates were then added to the MSD plate (50 μL/well) and shaken for 1 hr at RT and 600 rpm. • The MSD plate was washed 3× (150 μL/well) with 1×TBST and the primary detection antibody (Rabbit Anti-IRAK4 antibody [Y279], ab32511) was added to a final concentration of 1 μg/ml with 25 μL/well. The plate was then shaken for 1 hr at RT and 600 rpm. • The MSD plate was washed 3× (150 μL/well) with 1×TBST and the secondary detection antibody, SULFO-TAG anti-species antibody (Anti Rabbit Antibody (R32AB-5) MSD, R32AB-1) was added to a volume of 25 μL/well at a final concentration of 1 μg/ml. The plate was then shaken for 1 hr at RT and 600 rpm. • The MSD plate was then washed 3× (150 μL/well) with 1×TBST. • 1×MSD reading buffer was then added (150 μL/well) and the plate […].
(MSD, R92TC-2) • The MSD instrument was then read.
The remaining activity was calculated following the formula below:
• The DC50 was calculated by fitting the Curve using Xlfit (v5.3.1.3), equation 201: […]
The letter codes for IRAK4 DC50 indicate the concentration of compound required to degrade 50% of protein: A (<0.01 μM), B (0.01-0.1 μM), C (>0.1-0.2 μM), D (>0.2 μM).

Structure (SMILES)	DC50 [nM]
COc1cc2nc([C@H]3CC[C@H](CN4CCN(c5ccn6c(N7CCC(=O)NC7=O)cnc6c5OC)CC4)CC3)sc2cc1NC(=O)c1cccc(C(F)(F)F)n1 [I-48]	10 to 100
Cc1cc2nn([C@H]3CC[C@H](CN4CCN(c5cccn6c(N7CCC(=O)NC7=O)cnc56)CC4)CC3)cc2cc1NC(=O)c1cccc(C(F)(F)F)n1 [I-49]	10 to 100
COc1cc2nc([C@H]3CC[C@H](CN4CCN(c5ccn6c(N7CCC(=O)NC7=O)cnc6c5C)CC4)CC3)sc2cc1NC(=O)c1cccc(C(F)(F)F)n1 [I-50]	10 to 100
COc1cc2nn([C@H]3CC[C@H](CN4C[C@@H]5C[C@H]4CN5c4ccn5c(N6CCC(=O)NC6=O)cnc5c4)CC3)cc2cc1NC(=O)c1cccc(C(F)(F)F)n1 [I-52]	10 to 100
COc1cc2nn([C@H]3CC[C@H](CN4C5CCC4CN(c4cccn6c(N7CCC(=O)NC7=O)cnc46)C5)CC3)cc2cc1NC(=O)c1cccc(C(F)(F)F)n1 [I-53]	< 10
COc1cc2nn([C@H]3CC[C@H](CN4C[C@@H]5C[C@H]4CN5c4cccn5c(N6CCC(=O)NC6=O)cnc45)CC3)cc2cc1NC(=O)c1cccc(C(F)(F)F)n1 [I-54]	10 to 100
COc1cc2nn([C@H]3CC[C@H](CN4C[C@H]5C[C@@H]4CN5c4cccn5c(N6CCC(=O)NC6=O)cnc45)CC3)cc2cc1NC(=O)c1cccc(C(F)(F)F)n1 [I-55]	10 to 100
COc1cc2nn([C@H]3CC[C@H](CN4C[C@H]5C[C@@H]4CN5c4ccn5c(N6CCC(=O)NC6=O)cnc5c4)CC3)cc2cc1NC(=O)c1cccc(C(F)(F)F)n1 [I-56]	10 to 100
COc1cc2nn([C@H]3CC[C@H](CN4C5CC4CN(c4cccn6c(N7CCC(=O)NC7=O)cnc46)C5)CC3)cc2cc1NC(=O)c1cccc(C(F)(F)F)n1 [I-57]	10 to 100
COc1cc2nc([C@H]3CC[C@H](CN4CCC(c5cc(OC)c6ncc(N7CCC(=O)NC7=O)n6c5)CC4)CC3)sc2cc1NC(=O)c1cccc(C(F)(F)F)n1 [I-58]	> 200
C[C@H]1CN(C[C@H]2C[C@H](n3cc(NC(=O)c4cnn5ccc(N6C[C@H]7C[C@@H]6CO7)nc45)c(C(F)F)n3)C2)CC[C@@H]1OCC#Cc1ccn2c(N3CCC(=O)NC3=O)cnc2c1 [I-59]	< 10
O=C1CCN(c2cnc3c(C#CCN4CCN(C[C@H]5CC[C@H](n6cc(NC(=O)c7cnn8ccc(N9C[C@H]%10C[C@@H]9CO%10)nc78)c(C(F)F)n6)CC5)CC4)cccn23)C(=O)N1 [I-60]	< 10
C[C@H]1CN(C[C@H]2CC[C@H](n3cc(NC(=O)c4cnn5ccc(N6C[C@H]7C[C@@H]6CO7)nc45)c(C(F)F)n3)CC2)CC[C@@H]1OCC#Cc1cccn2c(N3CCC(=O)NC3=O)cnc12 [I-61]	< 10
C[C@@H]1CN(C[C@H]2CC[C@H](n3cc(NC(=O)c4cnn5ccc(N6C[C@H]7C[C@@H]6CO7)nc45)c(C(F)F)n3)CC2)CC[C@H]1OCC#Cc1cccn2c(N3CCC(=O)NC3=O)cnc12 [I-62]	< 10
C[C@H]1CN(C[C@H]2CC[C@H](n3cc(NC(=O)c4cnn5ccc(N6C[C@H]7C[C@@H]6CO7)nc45)c(C(F)F)n3)CC2)CC[C@@H]1OCC#Cc1ccn2c(N3CCC(=O)NC3=O)cnc2c1 [I-63]	< 10
C[C@@H]1CN(C[C@H]2CC[C@H](n3cc(NC(=O)c4cnn5ccc(N6C[C@H]7C[C@@H]6CO7)nc45)c(C(F)F)n3)CC2)CC[C@H]1OCC#Cc1ccn2c(N3CCC(=O)NC3=O)cnc2c1 [I-64]	< 10
N#Cc1cnc2c(C(=O)Nc3ccc4nn([C@H]5CC[C@H](CN6CCC(c7cccn8c(N9CCC(=O)NC9=O)cnc78)CC6)CC5)cc4c3)cnn2c1 [I-65, 6-Cyano-N-[2-[4-[[4-[3-(2,4-dioxohexahydropyrimidin-1-yl)imidazo[1,2-a]pyridin-8-yl]-1-piperidyl]methyl]cyclohexyl]indazol-5-yl]pyrazolo[1,5-a]pyrimidine-3-carboxamide]	10 to 100
N#Cc1cc2nn([C@H]3CC[C@H](CN4CCC(c5ccn6c(N7CCC(=O)NC7=O)cnc6c5)CC4)CC3)cc2cc1NC(=O)c1cccc(C(F)(F)F)n1 [I-66]	< 10

Structure (SMILES)	DC50 [nM]
N#Cc1cc2nn([C@H]3CC[C@H](CN4CCC(c5cccn6c(N7CCC(=O)NC7=O)cnc56)CC4)CC3)cc2cc1NC(=O)c1cccc(C(F)(F)F)n1 [I-67]	< 10
COc1cc2nn([C@H]3CC[C@H](CN4CCN(c5ccn6c(N7CCC(=O)NC7=O)cnc6c5)CC4)CC3)cc2cc1NC(=O)c1cccc(C(F)(F)F)n1 [I-68]	< 10
COc1cc2nn([C@H]3CC[C@H](CN4CCN(c5cccn6c(N7CCC(=O)NC7=O)cnc56)CC4)CC3)cc2cc1NC(=O)c1cccc(C(F)(F)F)n1 [I-69]	< 10
O=C1CCN(c2cnc3cc(C#CCO[C@@H]4CCN(C[C@H]5CC[C@H](n6cc(NC(=O)c7cnn8ccc(N9C[C@H]%10C[C@@H]9CO%10)nc78)c(C(F)F)n6)CC5)C[C@@H]4F)ccn23)C(=O)N1 [I-70]	< 10
O=C1CCN(c2cnc3cc(C#CCO[C@H]4CCN(C[C@H]5CC[C@H](n6cc(NC(=O)c7cnn8ccc(N9C[C@H]%10C[C@@H]9CO%10)nc78)c(C(F)F)n6)CC5)C[C@H]4F)ccn23)C(=O)N1 [I-71]	< 10
N#Cc1cnc2c(C(=O)Nc3ccc4nn([C@H]5CC[C@H](CN6CCC(c7ccn8c(N9CCC(=O)NC9=O)cnc8c7)CC6)CC5)cc4c3)cnn2c1 [I-72]	> 200
CC(C)Nc1cc(-c2ccc3cc(C#N)cnn23)ncc1C(=O)N[C@H]1CC[C@H](CN2CCC(c3cccn4c(N5CCC(=O)NC5=O)cnc34)CC2)CC1 [I-73]	10 to 100
CC(C)Nc1cc(-c2ccc3cc(C#N)cnn23)ncc1C(=O)N[C@H]1CC[C@H](CN2CCC(c3ccn4c(N5CCC(=O)NC5=O)cnc4c3)CC2)CC1 [I-74]	10 to 100
O=C1CCN(c2cnc3cc(C#CCN4CCN(C[C@H]5CC[C@H](n6cc(NC(=O)c7cnn8ccc(N9C[C@H]%10C[C@@H]9CO%10)nc78)c(C(F)F)n6)CC5)CC4)ccn23)C(=O)N1 [I-75]	< 10
CC(C)Nc1cc(-n2ccc3cc(C#N)cnc32)ncc1C(=O)N[C@H]1CC[C@H](CN2CCC(c3cccn4c(N5CCC(=O)NC5=O)cnc34)CC2)CC1 [I-76]	10 to 100
CC(C)Nc1cc(-n2ccc3cc(C#N)cnc32)ncc1C(=O)N[C@H]1CC[C@H](CN2CCC(c3ccn4c(N5CCC(=O)NC5=O)cnc4c3)CC2)CC1 [I-77]	10 to 100
COc1cc2nc([C@H]3CC[C@H](CN4CCC(c5ccn6c(N7CCC(=O)NC7=O)cnc6c5)CC4)CC3)sc2cc1NC(=O)c1cccc(C(F)(F)F)n1 [I-78]	10 to 100
COc1cc2nc([C@H]3CC[C@H](CN4CCC(c5cccn6c(N7CCC(=O)NC7=O)cnc56)CC4)CC3)sc2cc1NC(=O)c1cccc(C(F)(F)F)n1 [I-79]	< 10
COc1cc2nc([C@H]3CC[C@H](CN(C)C4CCN(c5ccn6c(N7CCC(=O)NC7=O)cnc6c5)CC4)CC3)sc2cc1NC(=O)c1cccc(C(F)(F)F)n1 [I-80]	10 to 100
COc1cc2nn([C@H]3CC[C@H](CN4CCC(c5ccn6c(N7CCC(=O)NC7=O)cnc6c5)CC4)CC3)cc2cc1NC(=O)c1cc(F)cc(C(F)(F)F)c1 [I-81]	10 to 100
COc1cc2nn([C@H]3CC[C@H](CN4CCC(c5cccn6c(N7CCC(=O)NC7=O)cnc56)CC4)CC3)cc2cc1NC(=O)c1cc(F)cc(C(F)(F)F)c1 [I-82]	10 to 100
COc1cc2nn([C@H]3CC[C@H](CN4CCC(c5cccn6c(N7CCC(=O)NC7=O)cnc56)CC4)CC3)cc2cc1NC(=O)c1cncc(C#N)c1 [I-83]	100 to 200
COc1cc2nn([C@H]3CC[C@H](CN4CCC(c5ccn6c(N7CCC(=O)NC7=O)cnc6c5)CC4)CC3)cc2cc1NC(=O)c1cncc(C#N)c1 [I-84]	> 200
